Usually EC50 stands for the concentration at which the effect is half-maximal.

Each structure is given as a SMILES string.

One experiment has as its target T1, human APJ receptor (Homo sapiens, UniProt P35414).
T1 construct: expressed in transfected cells; host or cells: HEK293
T1 sequence (P35414 1-380): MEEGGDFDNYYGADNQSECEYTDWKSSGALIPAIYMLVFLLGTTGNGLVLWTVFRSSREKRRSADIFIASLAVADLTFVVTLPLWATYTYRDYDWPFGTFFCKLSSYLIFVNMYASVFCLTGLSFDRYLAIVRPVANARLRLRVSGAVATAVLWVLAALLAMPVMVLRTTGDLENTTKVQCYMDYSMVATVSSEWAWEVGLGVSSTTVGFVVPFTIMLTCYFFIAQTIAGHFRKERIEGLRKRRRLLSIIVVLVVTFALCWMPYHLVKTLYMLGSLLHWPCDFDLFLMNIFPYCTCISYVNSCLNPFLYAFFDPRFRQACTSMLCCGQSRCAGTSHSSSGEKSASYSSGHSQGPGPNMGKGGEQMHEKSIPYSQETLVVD
Put plainly: Intracellular cAMP accumulation assay (APJ hcAMP, HTRF). The settings on record: HEK293 cells stably expressing human APJ receptor; inhibition of forskolin-mediated cAMP production; Table 1; read-out: hAPJ cAMP EC50 Potency range. The class given is cell-based. Summed up:
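Inhibition of forskolin (2 μM)-driven cAMP, with […], measured by HTRF after 30 min room-temperature compound exposure of stably transfected HEK293 cells. cAMP read from a standard curve; variable-slope fit gives EC50, and maximal inhibition is normalised to (Pyr1)apelin-13 as 100%.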
For `CNC(=O)c1ccccc1-c1ccc(S(=O)(=O)c2c(O)nc(-c3ccn(C)n3)c(N(c3ccccc3)C(C)C)c2O)cc1` [Example 158, 4′-((2,4-dihydroxy-5-(isopropyl(phen-yl)amino)-6-(1-methyl-1H-pyrazol-3-yl)pyridin-3-yl)sulfonyl)-N-methyl-[1,1′-biphenyl]-2-carboxamide], the concentration for a half-maximal effect (EC50) fell in the range of 0.01 to 10 nM.
Same read-out and setting: then `CCN(c1ccccc1)c1c(-c2cnn(C)c2)nc(O)c(S(=O)(=O)c2ccc(-c3ccc(F)nc3C)cc2)c1O` [Example 152, 5-(ethyl(phenyl)amino)-3-((4-(6-fluoro-2-methylpyridin-3-yl)phenyl)sulfonyl)-6-(1-methyl-1H-pyrazol-4-yl)pyridine-2,4-diol], with 0.01 to 10 nM; and `CCN(c1ccccc1)c1c(-c2cnn(C)c2)nc(O)c(S(=O)(=O)c2ccc(-c3ccccc3C(=O)NC3CC3)cc2)c1O` [Example 153, N-cyclopropyl-4′-((5-(ethyl(phenyl)amino)-2,4-dihydroxy-6-(1-methyl-1H-pyrazol-4-yl)pyridin-3-yl)sulfonyl)-[1,1′-biphenyl]-2-carboxamide], with 0.01 to 10 nM; and `CCCCc1nc(O)c(S(=O)(=O)c2ccc(-c3ccc(F)nc3C)cc2)c(O)c1N(CC)c1cc(C)cc(C)c1` [Example 135, 6-butyl-5-((3,5-dimethylphenyl)(ethyl)amino)-3-((4-(6-fluoro-2-methylpyridin-3-yl)phenyl)sulfonyl)pyridine-2,4-diol], with 0.01 to 10 nM.
Turning to `CCCCc1nc(O)c(S(=O)(=O)c2ccc(-c3ccc(F)nc3C)cc2)c(O)c1N1c2ccccc2CCC1C` (stereo not drawn) [Example 048, 6-butyl-3-((4-(6-fluoro-2-methylpyridin-3-yl)phenyl)sulfonyl)-5-(2-methyl-3,4-dihydroquinolin-1(2H)-yl)pyridine-2,4-diol], the EC50 lay within 0.01 to 10 nM.
The same measure, in the same setting: then `CCCCc1nc(O)c(S(=O)(=O)c2ccc(-c3cccnc3C)cc2)c(O)c1N1c2ccccc2CCC1C` (stereo not drawn) [Example 046, 6-butyl-5-(2-methyl-3,4-dihydroquinolin-1(2H)-yl)-3-((4-(2-methylpyridin-3-yl)phenyl)sulfonyl)pyridine-2,4-diol], with 0.01 to 10 nM; and `CCCCc1nc(O)c(S(=O)(=O)c2ccc(-c3ccnc(F)c3C)cc2)c(O)c1N(C)c1ccccc1C` [Example 193, 6-butyl-3-((4-(2-fluoro-3-methypyridin-4-yl)phenyl)sulfonyl)-5-(methyl(o-tolyl)amino)pyridine-2,4-diol], with 0.01 to 10 nM.
Same read-out and setting: then `CCN(c1cccc(C#N)c1)c1c(-c2ccn(C)n2)nc(O)c(S(=O)(=O)c2ccc(-c3ccccc3C(=O)NC)cc2)c1O` [Example 214, 4′-((5-((3-cyanophenyl)(ethyl)ami-no)-2,4-dihydroxy-6-(1-methyl-1H-pyrazol-3-yl)pyridin-3-yl)sulfonyl)-N-methyl-[1,1′-biphenyl]-2-carboxamide], with 0.01 to 10 nM; and `CCCCc1nc(O)c(S(=O)(=O)c2ccc(-c3ccncc3C)cc2)c(O)c1N(C)c1ccccc1F` [Example 112, 6-butyl-5-((2-fluorophenyl)(methyl)amino)-3-((4-(3-methylpyridin-4-yl)phenyl)sulfonyl)pyridine-2,4-diol], with 0.01 to 10 nM; and `CCCCc1nc(O)c(S(=O)(=O)c2ccc(-c3cccnc3C)cc2)c(O)c1N(C)c1ccc(OC)cc1` [Example 035, 6-butyl-5-((4-methoxyphenyl)(methyl)amino)-3-((4-(2-methylpyridin-3-yl)phenyl)sulfonyl)pyridine-2,4-diol], with 10 to 100 nM.
Still for that read-out and setting: then `CCN(c1ccccc1)c1c(-c2ccn(C)n2)nc(O)c(S(=O)(=O)c2ccc(-c3ccc(F)nc3C)cc2)c1O` [Example 059, 5-(ethyl(phenyl)amino)-3-((4-(6-fluoro-2-methylpyridin-3-yl)phenyl)sulfonyl)-6-(1-methyl-1H-pyrazol-3-yl)pyridine-2,4-diol], with 0.01 to 10 nM; and `CCN(c1ccccc1)c1c(-c2ccn(C)n2)nc(O)c(S(=O)(=O)c2ccc(-c3ccncc3C)cc2)c1O` [Example 064, 5-(ethyl(phenyl)amino)-6-(1-methyl-1H-pyrazol-3-yl)-3-((4-(3-methylpyridin-4-yl)phenyl)sulfonyl)pyridine-2,4-diol], with 0.01 to 10 nM; and `CCCCc1nc(O)c(S(=O)(=O)c2ccc(-c3cccnc3C)cc2)c(O)c1N(CC)c1cccc(C#N)c1` [Example 175, 3-((2-butyl-4,6-dihydroxy-5-((4-(2-methylpyridin-3-yl)phenyl)sulfonyl)pyri-dine-3-yl)(ethyl)amino)benzonitrile], with 0.01 to 10 nM.
Turning to `CCCCc1nc(O)c(S(=O)(=O)c2ccc(-c3cccnc3C)cc2)c(O)c1N(C)c1cccc(C#N)c1` [Example 119, 3-((2-butyl-4,6-dihydroxy-5-((4-(2-methylpyridin-3-yl)phenyl)sulfonyl)pyridin-3-yl)(methyl)amino)benzonitrile], the EC50 was in the range of 0.01 to 10 nM.
The same measure, in the same setting: then `CCCCc1nc(O)c(S(=O)(=O)c2ccc(-c3cccnc3C)cc2)c(O)c1N(C)c1ccc(C)cc1` [Example 097, 6-butyl-5-(methyl(p-tolyl)amino)-3-((4-(2-methylpyridin-3-yl)phenyl)sulfonyl)pyridine-2,4-diol], with 10 to 100 nM; and `CCN(c1ccccc1)c1c(-c2ccn(C)n2)nc(O)c(S(=O)(=O)c2ccc(-c3ccccc3C(=O)N(C)C)cc2)c1O` [Example 060, 4′-((5-(ethyl(phenyl)amino)-2,4-dihydroxy-6-(1-methyl-1H-pyrazol-3-yl)pyridin-3-yl)sulfonyl)-N,N-dimethyl-[1,1′-biphenyl]-2-carboxamide], with 0.01 to 10 nM; and `CCCCc1nc(O)c(S(=O)(=O)c2ccc(Br)cc2)c(O)c1N(CC)c1cc(C)cc(C)c1` [Example 134, 3-((4-bromophenyl)sulfonyl)-6-butyl-5-((3,5-dimethylphenyl)(ethyl)amino)pyridine-2,4-diol], with 10 to 100 nM.
On the same count and under the same terms, then `CCN(c1ccccc1)c1c(-c2cccc(C)c2)nc(O)c(S(=O)(=O)c2ccc(-c3ccccc3C(N)=O)cc2)c1O` [Example 144, 4′-((5-(ethyl(phenyl)amino)-2,4-dihydroxy-6-(m-tolyl)pyridin-3-yl)sulfonyl)-[1,1′-biphenyl]-2-carboxamide], with 0.01 to 10 nM; and `CCCCc1nc(O)c(S(=O)(=O)c2ccc(-c3ccnc(F)c3C)cc2)c(O)c1N(C)c1ccc(C)cc1` [Example 092, 6-butyl-3-((4-(2-fluoro-3-methylpyridin-4-yl)phenyl)sulfonyl)-5-(methyl(p-tolyl)amino)pyridine-2,4-diol], with 0.01 to 10 nM; and `CCCCc1nc(O)c(C(=O)N2CC[C@@H](c3ccccc3)C2)c(O)c1N(CCC)c1ccccc1` [Example 068, (S)-(6-butyl-2,4-dihydroxy-5-(phenyl(propyl)amino)pyridin-3-yl)(3-phenylpyrrolidin-1-yl)methanone], with 10 to 100 nM.
On the same count and under the same terms, then `CCCCc1nc(O)c(S(=O)(=O)c2ccc(-c3cccnc3C)cc2)c(O)c1N1CCCc2ccccc21` [Example 024, 6-butyl-5-(3,4-dihydroquinolin-1(2H)-yl)-3-((4-(2-methylpyridin-3-yl)phenyl)sulfonyl)pyridine-2,4-diol], with 0.01 to 10 nM.

The experiment is the same for the next values; noted with them: HEK293 cells stably expressing human APJ receptor; inhibition of forskolin-mediated cAMP production; Table 2; read-out: hAPJ cAMP EC50 Potency range.
As for `CCN(c1ccccc1)c1c(-c2ccn(C)n2)nc(O)c(C(=O)N2CCC(c3ccc(Cl)cn3)C2)c1O` (stereo not drawn) [Example 200, (3-(5-chloropyridin-2-yl)pyrrolidin-1-yl)(5-(ethyl(phenyl)amino)-2,4-dihydroxy-6-(1-methyl-1H-pyrazol-3-yl)pyridin-3-yl)methanone], the EC50 fell in the range of 0.01 to 10 nM.

Staying with this experiment, now noted: hAPJ cAMP EC50 Potency range, HEK293 cells stably expressing human APJ receptor; inhibition of forskolin-mediated cAMP production; Table 1.
Compound `CCN(c1ccccc1)c1c(CC2CC2)nc(O)c(C(=O)N2CCC(c3ncc(F)cc3F)C2)c1O` (stereo not drawn) [Example 053, (6-(cyclopropylmethyl)-5-(ethyl(phenyl)amino)-2,4-dihydroxypyridin-3-yl)(3-(3,5-difluoropyridin-2-yl)pyrrolidin-1-yl)methanone] came in with an EC50 of 10 to 100 nM.
`CCCCc1nc(O)c(C(=O)N2CC[C@H](c3ccccc3)C2)c(O)c1N(C)c1ccccc1` [Example 008, (R)-(6-butyl-2,4-dihydroxy-5-(methyl(phenyl)amino)pyridin-3-yl)(3-phenylpyrrolidin-1-yl)methanone] displayed a concentration for a half-maximal effect (EC50) of 10 to 100 nM.
In turn, `CCCCc1nc(O)c(C(=O)N2CC[C@H](c3ccccc3)C2)c(O)c1N(c1ccccc1)C(C)C` [Example 023, (R)-(6-butyl-2,4-dihydroxy-5-(isopropyl(phenyl)amino)pyridin-3-yl)(3-phenylpyrrolidin-1-yl)methanone] had an EC50 of 10 to 100 nM.
On the same count and under the same terms, then `CCCCc1nc(O)c(C(=O)N2CC[C@@H](c3ccccc3)C2)c(O)c1N(C)c1ccccc1` [Example 007, (S)-(6-butyl-2,4-dihydroxy-5-(methyl(phenyl)amino)pyridin-3-yl)(3-phenylpyrrolidin-1-yl)methanone], with 10 to 100 nM.

The same experiment, now with this note: read-out: hAPJ cAMP EC50 Potency range; HEK293 cells stably expressing human APJ receptor; inhibition of forskolin-mediated cAMP production; Table 1.
For the compound `CCN(c1ccccc1)c1c(-c2cccc(C)c2)nc(O)c(C(=O)N2CCC(c3ncc(F)cc3F)C2)c1O` (stereo not drawn) [Example 132, (3-(3,5-difluoropyridin-2-yl)pyrrolidin-1-yl)(5-(ethyl(phenyl)amino)-2,4-dihydroxy-6-(m-tolyl)pyridin-3-yl)methanone], the EC50 lay within 0.01 to 10 nM.

The record behind these values is US10669258B2, “3-sulfonyl-5-aminopyridine-2,4-diol APJ agonists” (BRISTOL-MYERS SQUIBB COMPANY, priority 2016, dated 2020).
